Reference: PMC10713593, “Staphylococcus aureus functional amyloids catalyze degradation of β-lactam antibiotics” (Nature Communications, 2023)
Where no end group is shown, it is not given here.

What was measured:
[1] = Nitrocefin hydrolysis kinetics (absorbance of degraded nitrocefin at 480 nm; initial rates V0, Michaelis-Menten fit); assay type: biochemical; details: peptide 170 µM; for nitrocefin substrate degradation after two hours: initial nitrocefin 107 µM (Fig. 4b)
Description: Nitrocefin, a β-lactam widely used as a surrogate substrate of Penicillin in β-lactamase activity assay, was used as a substrate. NC degradation was monitored for 2 h. Nitrocefin stock solution was dissolved in acetonitrile (20 mM) and then diluted with Hepes buffer (50 mM, pH 7.4) to nitrocefin concentration of 360 µM (further dilutions to lower concentrations were made with the 360 µM NC stock). All nitrocefin samples were kept on ice in cold conditions and any further dilution or mixing was performed in ice-cold conditions to avoid self-hydrolysis background reaction. […] Immediately after mixing the samples, the plate was transferred to 20̊ °C pre-cooled plate reader (Multiskan GO, Thermo Scientific, Waltham, MA) and shaken slowly for 10 s. Then, the absorbance of degraded nitrocefin was measured for 2 h at interval of 20 s at λ = 480 nm. Initial production rates (V0) were calculated by slope of the initial linear range of degraded-nitrocefin production at the first 15 min. The reported results are and average of at least five separate measurements (the exact number of repeats, N, is reported next to the values). Each experiment also included blank samples of nitrocefin substrate diluted with buffer instead of PSMα. […] The initial rate calculations were performed while also subtracting the self-degradation of the substrate, to ensure that this product absorbance is a result of PSMα presence.
The initial rates of degraded-nitrocefin production were calculated from the slopes of the first 15 min of measurement as reported above. The initial rates (V0) were fitted using non-linear regression applied with the solver function in excel, either to Michalis–Menten equation V=Vmax.[S]/(KM+S) Where Vmax. Stands for maximal reaction rate, KM stands for Michalis–Menten constant, [S] stands for the substrate molar concentration. Each initial rate value was presented as average ± SEM. The kinetic parameters were calculated by fitting the data to MM model using non-linear regression, and the confidence intervals for each parameter were calculated accordingly.

[2] = biological target: PSMα3 fibrils (Staphylococcus aureus, UniProt A9JX07); assay: LC-MS degradation of amoxicillin and penicillin G with PSMα3 fibrils or buffer; assay type: biochemical; details: for Degraded Penicillin G (PSMa3) (percentage of LC peaks, hydrolyzed product) / Penicillin G (PSMa3) (percentage of LC peaks, parent compound) / Degraded Penicillin G (percentage of LC peaks, hydrolyzed product) / Penicillin G (percentage of LC peaks, parent compound): Hepes 50 mM pH 7.4, penicillin G 40 µM, LC-MS; for Degraded Penicillin G (percentage of LC peaks, hydrolyzed product) / Penicillin G (percentage of LC peaks, parent compound): buffer control
PSMα3 fibrils, sequence (A9JX07 whole entry, looked up): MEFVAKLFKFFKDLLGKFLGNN
Description: Amoxicillin or Penicillin solutions were dissolved in Hepes buffer (50 mM, pH 7.4) in concentration of 50 µM. PSMα3 solution in concentration of 1.54 mM was dissolved in DIW and Hepes buffer was added to the final concentration of 50 mM. The antibiotics’ solutions and preincubated PSMα3 solutions were mixed to final PSMα3 […] 180 µL organic solvent to stop the reaction (acetonitrile for Amoxicillin, methanol in the case of Penicillin). The samples were collected and injected sequentially into the LC-MS analysis.
Waters ACQUITY UPLC I-Class PLUS System coupled with high-resolution Thermo Orbitrap Exploris 240 mass-spectrometer were used for analysis of Amoxicillin and Penicillin-G over time. 1 µL of each sample was injected into the reverse-phase Acquity UPLC BEH C18 1.7 µm, 2.1 × 50 mm column (Waters) and run under a gradient program (Table S2 for Amoxicillin, Table S3 for Penicillin-G). The samples were ionized using soft electrospray ionization in positive mode and detected in a full scan mode in range from 60 to 900 m/z with a resolution of 240,000 Full Width at Half Maximum. MS was tuned according to the manufacture recommendations. Relative abundance of the intact/degraded compounds was calculated by peak area of the extracted ion chromatogram: for Amoxicillin 366.1–366.12, and degraded-Amoxicillin 384.1–384.13 m/z, Penicillin-G 335.1–335.12, for degraded-Penicillin-G 353.1–353.12, for (Figs. S13 and S14, respectively).

Compound: CSCC[C@H](N)C(=O)N[C@@H](CCC(=O)O)C(=O)N[C@@H](Cc1ccccc1)C(=O)N[C@H](C(=O)N[C@@H](C)C(=O)N[C@@H](CCCCN)C(=O)N[C@@H](CC(C)C)C(=O)N[C@@H](Cc1ccccc1)C(=O)N[C@@H](CCCCN)C(=O)N[C@@H](Cc1ccccc1)C(=O)N[C@@H](Cc1ccccc1)C(=O)N[C@@H](CCCCN)C(=O)N[C@@H](CC(=O)O)C(=O)N[C@@H](CC(C)C)C(=O)N[C@@H](CC(C)C)C(=O)NCC(=O)N[C@@H](C)C(=O)N[C@@H](Cc1ccccc1)C(=O)N[C@@H](CC(C)C)C(=O)NCC(=O)N[C@@H](CC(N)=O)C(=O)N[C@@H](CC(N)=O)C(=O)O)C(C)C [α3-K17A]
- nitrocefin substrate degradation after two hours [1]: minimal degradation

Compound: CC1(C)S[C@@H]2[C@H](NC(=O)Cc3ccccc3)C(=O)N2[C@H]1C(=O)O [Penicillin G]
- Degraded Penicillin G (PSMa3) (percentage of LC peaks, hydrolyzed product) ([2]; PSMα3 fibrils 308 µM, 0h): 14.1576%
- Penicillin G (PSMa3) (percentage of LC peaks, parent compound) ([2]; PSMα3 fibrils 308 µM, 0h): 85.8424%
- Degraded Penicillin G (PSMa3) (percentage of LC peaks, hydrolyzed product) ([2]; PSMα3 fibrils 308 µM, 2h): 11.4487%
- Penicillin G (PSMa3) (percentage of LC peaks, parent compound) ([2]; PSMα3 fibrils 308 µM, 2h): 88.5513%
- Degraded Penicillin G (PSMa3) (percentage of LC peaks, hydrolyzed product) ([2]; PSMα3 fibrils 308 µM, 4h): 13.5281%
- Penicillin G (PSMa3) (percentage of LC peaks, parent compound) ([2]; PSMα3 fibrils 308 µM, 4h): 86.4719%
- Degraded Penicillin G (PSMa3) (percentage of LC peaks, hydrolyzed product) ([2]; PSMα3 fibrils 308 µM, 8h): 13.7177%
- Penicillin G (PSMa3) (percentage of LC peaks, parent compound) ([2]; PSMα3 fibrils 308 µM, 8h): 86.2823%
- Degraded Penicillin G (PSMa3) (percentage of LC peaks, hydrolyzed product) ([2]; PSMα3 fibrils 308 µM, 12h): 18.21%
- Penicillin G (PSMa3) (percentage of LC peaks, parent compound) ([2]; PSMα3 fibrils 308 µM, 12h): 81.79%
- Degraded Penicillin G (PSMa3) (percentage of LC peaks, hydrolyzed product) ([2]; PSMα3 fibrils 308 µM, 24h): 37.9475%
- Penicillin G (PSMa3) (percentage of LC peaks, parent compound) ([2]; PSMα3 fibrils 308 µM, 24h): 62.0525%
- Degraded Penicillin G (PSMa3) (percentage of LC peaks, hydrolyzed product) ([2]; PSMα3 fibrils 308 µM, 48h): 86.3947%
- Penicillin G (PSMa3) (percentage of LC peaks, parent compound) ([2]; PSMα3 fibrils 308 µM, 48h): 13.6053%
- Degraded Penicillin G (PSMa3) (percentage of LC peaks, hydrolyzed product) ([2]; PSMα3 fibrils 308 µM, 60h): 96.085%
- Penicillin G (PSMa3) (percentage of LC peaks, parent compound) ([2]; PSMα3 fibrils 308 µM, 60h): 3.915%
- Degraded Penicillin G (PSMa3) (percentage of LC peaks, hydrolyzed product) ([2]; PSMα3 fibrils 308 µM, 72h): 99.5055%
- Penicillin G (PSMa3) (percentage of LC peaks, parent compound) ([2]; PSMα3 fibrils 308 µM, 72h): 0.4945%
- hydrolysis by PSMα3 fibrils versus spontaneous degradation ([2]; antibiotic 40 µM, PSMα3 fibrils 308 µM, Hepes 50 mM pH 7.4, LC-MS (Fig. 6)): significantly higher extent compared to the spontaneous degradation
- Degraded Penicillin G (percentage of LC peaks, hydrolyzed product) ([2]; 0h): 11.7847%
- Penicillin G (percentage of LC peaks, parent compound) ([2]; 0h): 88.2153%
- Degraded Penicillin G (percentage of LC peaks, hydrolyzed product) ([2]; 2h): 11.7612%
- Penicillin G (percentage of LC peaks, parent compound) ([2]; 2h): 88.2388%
- Degraded Penicillin G (percentage of LC peaks, hydrolyzed product) ([2]; 4h): 11.6984%
- Penicillin G (percentage of LC peaks, parent compound) ([2]; 4h): 88.3016%
- Degraded Penicillin G (percentage of LC peaks, hydrolyzed product) ([2]; 8h): 11.6907%
- Penicillin G (percentage of LC peaks, parent compound) ([2]; 8h): 88.3093%
- Degraded Penicillin G (percentage of LC peaks, hydrolyzed product) ([2]; 12h): 15.4738%
- Penicillin G (percentage of LC peaks, parent compound) ([2]; 12h): 84.5262%
- Degraded Penicillin G (percentage of LC peaks, hydrolyzed product) ([2]; 24h): 23.4015%
- Penicillin G (percentage of LC peaks, parent compound) ([2]; 24h): 76.5985%
- Degraded Penicillin G (percentage of LC peaks, hydrolyzed product) ([2]; 48h): 37.4339%
- Penicillin G (percentage of LC peaks, parent compound) ([2]; 48h): 62.5661%
- Degraded Penicillin G (percentage of LC peaks, hydrolyzed product) ([2]; 60h): 42.5642%
- Penicillin G (percentage of LC peaks, parent compound) ([2]; 60h): 57.4358%
- Degraded Penicillin G (percentage of LC peaks, hydrolyzed product) ([2]; 72h): 42.8604%
- Penicillin G (percentage of LC peaks, parent compound) ([2]; 72h): 57.1396%

Compound: MEFVAKLFKFFADLLGKFLGNN [α3-K12A]
- nitrocefin substrate degradation after two hours [1]: 70%

Compound: MEFVAKLFKPFKDLLGKFLGNN [α3-F10P]
- initial rate of nitrocefin degradation reaction (V0) ([1]; initial nitrocefin 107 µM, Hepes 50 mM pH 7.4, 20 °C, first 15 min (Fig. 3f)): lower than 15 µM/h

Compound: MEFVAALFKFFKDLLGKFLGNN [α3-K6A]
- nitrocefin substrate degradation after two hours [1]: minimal degradation

Compound: CSCC[C@H](NC(C)=O)C(=O)N[C@@H](CCC(=O)O)C(=O)N[C@@H](Cc1ccccc1)C(=O)N[C@H](C(=O)N[C@@H](C)C(=O)N[C@@H](CCCCN)C(=O)N[C@@H](CC(C)C)C(=O)N[C@@H](Cc1ccccc1)C(=O)N[C@@H](CCCCN)C(=O)N[C@@H](Cc1ccccc1)C(=O)N[C@@H](Cc1ccccc1)C(=O)N[C@@H](CCCCN)C(=O)N[C@@H](CC(=O)O)C(=O)N[C@@H](CC(C)C)C(=O)N[C@@H](CC(C)C)C(=O)NCC(=O)N[C@@H](CCCCN)C(=O)N[C@@H](Cc1ccccc1)C(=O)N[C@@H](CC(C)C)C(=O)NCC(=O)N[C@@H](CC(N)=O)C(=O)N[C@@H](CC(N)=O)C(=O)O)C(C)C [α3-N.Ac.]
- nitrocefin substrate degradation after two hours [1]: minimal degradation

Compound: MEFVAKLFAFFKDLLGKFLGNN [α3-K9A]
- nitrocefin substrate degradation after two hours [1]: minimal degradation
